Tests used:
[1] = Rat single-dose pharmacokinetics; format: in vivo, Sprague Dawley rats
Procedure: Eighteen male Sprague Dawley rats (Charles River) weighing 217-263 g and aged 8-9 weeks were administered the test article, MGBG as either a single bolus intravenous dose of 1 mg/kg (Group 1) or as a single oral gavage dose of 10 mg/kg. A cohort of three animals was sacrificed via CO2 inhalation anaesthesia after final blood collection at each of T=2, 4, 12, 24, 36, and 48 hours post-dose. Dose formulation analysis verified administered dose solutions as within 17% of targeted concentration of 10 mg/kg.
Analysis was performed by LC/MS/MS. Pharmacokinetic analyses were performed on the mean MGBG plasma concentration versus time data using the non-compartmental approach (linear trapezoidal rule for AUC calculations). The WinNonlin sparse sampling tool was used for PK calculations. All samples reported as BQL (Below the Limit of Quantitation, in plasma 2.50 ng/mL) were changed to 0.00 ng/mL for the purpose of analysis.

[2] = Multi-species allometric scaling, predicted pharmacokinetic parameters in humans; details: predicted human, based on Mouse, Dog, Rhesus
Text: Multi-species allometric scaling based on pharmacokinetic parameters disclosed in Tables 2 and 3 was employed to calculate predicted pharmacokinetic parameters in humans according to methods known in the art. See, e.g., Ings R M, “Interspecies scaling and comparisons in drug development and toxicokinetics,” Xenobiotica, 1990 November; 20(11):1201-31 and Khor, S P et al., “Dihydropyrimidine dehydrogenase inactivation and 5-fluorouracil pharmacokinetics: allometric scaling of animal data, pharmacokinetics and toxicodynamics of 5-fluorouracil in humans,” Cancer Chemother Pharmacol (1997) 39(3): 833-38. Expected values are given below in Tables 6 and 7.

[3] = tested on: carrageenan-induced paw edema and hyperalgesia; test: Carrageenan paw test for edema and hyperalgesia; format: in vivo, Swiss Webster mice
Text: Injection of carrageenan subcutaneously into the hind foot (paw) of a rat or mouse induces robust inflammation and pain. The inflammatory response begins 1-2 hrs post-carrageenan injection and persists for at least five hours following inoculation. In addition, the animal's inflamed hind paw is sensitive to noxious (hyperaglesia) or innocuous (allodynia) stimuli, compared to the contralateral hind paw. Compounds can be evaluated in this model for anti-hyperalgesia and anti-inflammatory activity. […] It is possible that some compounds will affect the inflamed paw and not affect the responses of the contralateral paw.
Embodiments of the carrageenan foot edema test are performed with materials, reagents and procedures essentially as described by Winter, et al., (Proc. Soc. Exp. Biol. Med., 111, 544 (1962)). Prophylactic and therapeutic embodiments have been developed, and are known in the art. The animals are evaluated for their responsiveness to noxious (paw pinch, plantar test) or innocuous (cold plate, von Frey filaments) stimuli. In the following protocol, mice were used.
Animals, compounds, and dosing. Healthy young male Swiss Webster mice in which weight variation of the mice will not exceed ±20% of the mean were used for the study. […]
Paw Edema. Immediately before sub-plantar administration of carrageenan and after 2, 3, 5 and 24 hours post carrageenan, mouse paw volume was measured using the plethysmometer (Ugo Basile). The assessment of edema was expressed as the mean increase in paw volume relative to control.
Assessment of Paw Withdrawal Latency. Prior to sub-plantar administration of carrageenan and after 0.5, 2, 3, 5, and 24 hours post-carrageenan, the latency of withdrawal response was determined by placing mice on a hot plate analgesia meter with surface temperature maintained at 51° C. […] Paw withdrawal latency is calculated as Δt=right paw withdrawal−left paw withdrawal. […]

[4] = male, Sprague Dawley, plasma, single bolus IV 1 mg/kg, mean
[5] = male, Sprague Dawley, plasma, single oral gavage 10 mg/kg, mean
[6] = male, Sprague Dawley, single bolus IV 1 mg/kg, plasma, mean

CC(/C=N/NC(=N)N)=N\NC(=N)N [MGBG, 1,1′[methylethanediylidene]dinitrilodiguanidine]
clinical findings ([1]; following dosing): Abnormal clinical findings were not noted
bioavailability ([1]; male, Sprague Dawley, plasma, oral 10 mg/kg vs IV 1 mg/kg): 11.6%
Tmax [1, 4]: 0.083 h
half-life [1, 4]: 17.4 h
Tmax [1, 5]: 4.67 h
half-life [1, 5]: 28.1 h
AUC [1, 6]: 1250 ng·h/mL
Cmax [1, 6]: 684 ng/mL
AUC ([1]; male, Sprague Dawley, single oral gavage 10 mg/kg, AUCall, time zero to last plasma concentration measurement): 1280 ng·h/mL
Cmax ([1]; male, Sprague Dawley, single oral gavage 10 mg/kg, plasma, mean): 55.8 ng/mL
time point through which MGBG levels in plasma were measurable ([1]; single PO 10 mg/kg, beyond that certain samples BLQ): 12 h
Clobs ([1]; single bolus IV 1 mg/kg, mean): 13.4 mL/min/kg
VSSobs ([1]; single bolus IV 1 mg/kg, mean): 15.4 L/kg
Clobs ([1]; single oral gavage 10 mg/kg, mean): 3.18 mL/min/kg
VSS ([2]; IV): 9.1 L/kg
t1/2 ([2]; IV): 13.3 h
t1/2 ([2]; IV, Rat): 13.4 h
CL ([2]; ORAL): 20.9 mL/min/kg
t1/2 ([2]; ORAL): 23.0 h
t1/2 ([2]; ORAL, Rat): 23.3 h
reduction of edema ([3]; mice, MGBG PO BID): efficacious
reduction of hyperalgesia ([3]; mice, MGBG PO BID, hot plate paw withdrawal latency): efficacious
efficacy at lower doses ([3]; murine carrageenan models, 3 mg/kg PO BID and 10 mg/kg PO BID): efficacy

— US8258186B2, “Pharmaceutical for oral delivery comprising MGBG” (Pathologica, LLC, priority 2009, dated 2012)
